Data from patent publication US8466111B2, “Cyclopenta{G}quinazoline derivatives for the treatment of rheumatoid arthritis or acute myeloid leukaemia” (BTG International Limited, priority 2008, dated 2013).
Like-named read-outs stand apart in the source and are kept apart here.

Assays:
[1] = target: T1, FR-β (Homo sapiens, UniProt P14207); assay: Intact cell competitive binding of [3H]-folic acid to FR-β (CHO-β cells); settings: for FR-β binding affinity relative to folic acid: [3H]-folic acid displacement, 10 min at 4° C.
T1 construct: expressed in transfected cells; host or cells: Chinese Hamster Ovary cells (CHO-β / CHO-FR-β)
Experimental: (§1) An intact cell binding assay for competitive binding of [^3H]-folic acid and novel anti-folate drugs to FR-β and FR-α was performed essentially as described previously. See Mol. Pharmacol. 1995; 48: […] and Cancer Res. 1995; 55(17): 3795-3802 (both Westerhof et al.). Briefly, CHO-β cells (FR-β transfected Chinese Hamster Ovary cells) and KB cells (FR-α expressing cells) were detached by incubation in PBS+1 mM EDTA. Detached cells were suspended in ice-cold HEPES-buffered saline (140 mM NaCl, 20 mM HEPES, 6 mM KCl, 2 mM MgCl2, 6 mM D-glucose, pH 7.4 with NaOH) to a cell concentration of 3×10^6 and 1×10^6 cells/ml, respectively. One ml of cell suspension was added to a series of Eppendorf tubes containing […] [^3H]-folic acid (specific radioactivity: 2,000 dpm/μmol) in the absence or presence of increasing concentrations of natural folate or folate antagonists. Following 10 minutes at 4° C., cells were centrifuged in an Eppendorf centrifuge (30 s, 10,000 rpm), the supernatant was aspirated and cell pellets were resuspended in 200 μl water and analysed for radioactivity (Optima Gold scintillation fluid, United Technologies, Packard, Brussels, Belgium). Non-specific binding of [^3H] […] For comparison, data for affinities of the RFC for natural folates and folate antagonists were presented from previous studies. See. Mol Pharmacol 1995; 48: 459-471 Westerhof et al.) and Cancer Res. 2005; 65(24): 11721-11728 (Gibbs et al.).

[2] = tested on: macrophages (3A5) in synovial sublining layer; assay: Synovial tissue immunohistochemistry of RA patients treated with MTX; assay type: in vivo, human; settings: after 4 months of MTX, 219 before treatment, p=0.14
Experimental: In this study we analysed synovial tissue biopsies derived from the knee joints of 15 RA-patients with active disease before treatment and after 4 months of treatment with MTX (starting dose of MTX: 7.5 mg/week; increasing stepwise to 15 mg/week over 12 weeks). Active disease was defined as ≧6 swollen or tender joints and levels of moderate or worse on the physician's and patient's assessments of disease activity (Disease Activity Score-28; DAS-28). All patients had at least 1 clinically involved knee joint. Low dose prednisone (<10 mg/day) and concomitant stable doses of nonsteroidal anti-inflammatory drug (NSAID) treatment were allowed. None of the patients ever used MTX before enrolling the study. In patients taking other DMARDs, the treatment was terminated following a washout phase of 28 days. […]
Immunohistochemical staining of cryostat sections (4 μm) of synovial tissue biopsies from RA patients and controls was performed using a 3-step immunoperoxidase method as described previously. […] Stained sections were analysed for FR-β, 3A5 and CD3 expression by digital image analysis, as described previously. […] Positive cells were evaluated by analysing 18 consecutive hpfs, scoring numbers of positive cells in the intimal lining layer and the synovial sublining per mm^2.

[3] = tested on: human monocytic-macrophage THP1 cells; assay: Cell proliferation inhibition, THP1 cells; assay type: cell-based; settings: read-out: Growth inhibitory effects, IC50
Experimental: In other experiments human monocytic-macrophage THP1 cells were tested for antiproliferative effects of folate antagonists. To this end, 1 ml of cell suspension containing 1.25×10^5 cells were plated in individual wells of a 24-well tissue culture plate and incubated with 8 concentrations (with 2.5-fold increments) of folate antagonist drugs. After 72 hours drug exposure cell counts were performed with a haemocytometer and viability was checked by trypan blue exclusion.

[4] = tested on: CHO/WT cells; assay: Cell proliferation inhibition, CHO-WT cells; assay type: cell-based, Chinese Hamster; settings: 72 hours
Experimental: (§2) Cell proliferation inhibition assay CHO-WT and CHO-FRβ cells were seeded in individual wells of a 24-well tissue culture plate at a density of 1×10^4/cm^2. […] After 72 hours incubation, cells were harvested by trypsinization and counted for cell viability as described before. See Mol. Pharmacol. 1999; 55(4): 761-769 (Jansen et al.).

[5] = tested on: CHO/FR-β cells; assay: Cell proliferation inhibition, CHO-FR-β cells; assay type: cell-based, Chinese Hamster; settings: for Effect of addition of folic acid on growth inhibitory activity: 1 μM folic acid to block FR
Experimental: as §2

[6] = target: T2, RFC (reduced folate carrier) (Homo sapiens, UniProt P41440); settings: cited from earlier work
T2 sequence (P41440 1-591): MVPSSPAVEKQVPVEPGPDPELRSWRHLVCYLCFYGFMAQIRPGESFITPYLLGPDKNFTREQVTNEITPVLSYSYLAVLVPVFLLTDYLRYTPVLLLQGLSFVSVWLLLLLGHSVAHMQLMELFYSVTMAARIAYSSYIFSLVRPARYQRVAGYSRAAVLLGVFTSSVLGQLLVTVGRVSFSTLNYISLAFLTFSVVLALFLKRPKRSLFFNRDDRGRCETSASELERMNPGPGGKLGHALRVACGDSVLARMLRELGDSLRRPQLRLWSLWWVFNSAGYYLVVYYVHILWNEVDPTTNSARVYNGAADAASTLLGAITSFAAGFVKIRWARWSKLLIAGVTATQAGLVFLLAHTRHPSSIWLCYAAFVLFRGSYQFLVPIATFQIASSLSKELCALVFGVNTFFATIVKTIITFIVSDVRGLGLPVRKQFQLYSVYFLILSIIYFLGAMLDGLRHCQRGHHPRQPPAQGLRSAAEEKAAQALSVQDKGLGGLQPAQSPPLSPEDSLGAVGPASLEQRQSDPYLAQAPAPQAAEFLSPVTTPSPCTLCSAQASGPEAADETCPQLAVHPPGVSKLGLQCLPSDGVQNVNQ

[7] = target: T3, FR-α (Homo sapiens, UniProt P15328); assay: Intact cell competitive binding of [3H]-folic acid to FR-α (KB cells); settings: FRα (KB) versus FR-β (CHO-β)
T3 construct: KB cells (FR-α expressing cells); host or cells: KB cells
Experimental: as §1, with “Mol Pharmacol 1995; 48: 459-471 Westerhof et al.) and Cancer Res. 2005; 65(24): 11721-11728 (Gibbs et al.).” left out

T1 sequence (P14207 17-230): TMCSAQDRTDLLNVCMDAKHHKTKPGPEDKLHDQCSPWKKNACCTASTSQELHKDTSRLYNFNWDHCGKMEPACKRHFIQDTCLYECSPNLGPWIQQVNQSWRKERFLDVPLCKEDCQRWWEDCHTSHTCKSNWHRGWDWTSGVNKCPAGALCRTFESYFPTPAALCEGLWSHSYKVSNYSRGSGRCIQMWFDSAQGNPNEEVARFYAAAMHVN
T3 sequence (P15328 25-234): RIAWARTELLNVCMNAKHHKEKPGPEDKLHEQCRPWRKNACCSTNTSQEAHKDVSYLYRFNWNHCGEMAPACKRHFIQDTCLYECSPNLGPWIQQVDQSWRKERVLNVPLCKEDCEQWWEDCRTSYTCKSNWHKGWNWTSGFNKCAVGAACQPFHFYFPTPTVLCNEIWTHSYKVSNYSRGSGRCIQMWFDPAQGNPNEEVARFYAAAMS

IC50 ([3]; Homo sapiens, THP-1, 72 h)	FR-β binding affinity [1]	Molecule	FR-β binding affinity relative to folic acid [1]	other results
4850 ± 285 nM	relatively high binding affinity	C#CN(Cc1cc2c(=O)[nH]c(N)nc2cc1C)c1ccc(C(=O)N[C@@H](CCC(=O)CN[C@H](CCCC(=O)O)C(=O)O)C(=O)O)c(F)c1 [CB300635]	161 % of folic acid	Effect of addition of folic acid on growth inhibitory activity [5]: abrogated activity; Growth inhibition of CHO/FR-β cells ([5]; 72 hours): not markedly potent; Affinity for RFC [6]: poor affinity for RFC
1.6 ± 0.1 nM	relatively high binding affinity	Cc1nc2ccc3ccc(CNc4ccc5c(c4)CN([C@@H](CCC(=O)O)C(=O)O)C5=O)cc3c2c(=O)[nH]1 [GW1843]		
1 ± 0.4 nM	affinity comparable to MTX	Cc1c(CNc2ccc(C(=O)N[C@@H](CCCNC(=O)c3ccccc3C(=O)O)C(=O)O)cc2)cnc2nc(N)nc(N)c12 [PT644]		

Second part, the molecule before the results:

Molecule	IC50 ([3]; Homo sapiens, THP-1, 72 h)	FR-β binding affinity [1]	FR-β binding affinity relative to folic acid [1]	other results
CN(Cc1cnc2nc(N)nc(N)c2n1)c1ccc(C(=O)N[C@@H](CCC(=O)O)C(=O)O)cc1 [MTX, methotrexate]	7.1 ± 0.5 nM			FR-β binding affinity, fold lower than for folic acid [1]: approximately 50 fold; Median numbers of macrophages after MTX treatment [2]: 119 positive cell counts in the synovial sublining layer/mm^2
C#CCN(c1ccc(C(=O)N[C@@H](CCC(=O)N[C@H](CCC(=O)O)C(=O)O)C(=O)O)cc1)C1CCc2cc3nc(CO)[nH]c(=O)c3cc21 (mixture of isomers) [BGC 945]	3630 ± 350 nM	relatively high binding affinity	89 % of folic acid	Extracellular concentration inducing growth inhibition of CHO/WT cells [4]: > 1000 nM; Effect of addition of folic acid on growth inhibitory activity [5]: completely abrogated; Concentration inducing growth inhibition of CHO/FR-β cells ([5]; 72 hours): 10 to 50 nM; Differential in activity between control CHO cells and FR-β transfected cells ([5]; CHO/WT versus CHO/FR-β): largest differential in activity; Affinity for RFC [6]: poor affinity for RFC
Nc1nc2c(c(=O)[nH]1)SC(CCc1ccc(C(=O)N[C@@H](CCC(=O)O)C(=O)O)s1)CN2 (stereo partly shown) [AG2034]	3.2 ± 0.2 nM	moderate to high binding affinities	54 % of folic acid	Growth inhibition of CHO/WT cells [4]: displayed a growth inhibitory potential; FRα binding affinity, fold higher than FR-β [7]: 2.5 fold; Abrogation of growth inhibitory effects by FR-β blocking (folic acid) and RFC blocking (LV) ([5]; folic acid 1 μM or leucovorin 20 nM, CHO/WT and CHO/FR-β): only partial
C#CCN(c1ccc(C(=O)N[C@@H](CCC(=O)N[C@H](CCC(=O)O)C(=O)O)C(=O)O)cc1)[C@H]1CCc2cc3nc(CO)[nH]c(=O)c3cc21 [(6S)-BGC 945]			46 % of folic acid	
Nc1nc(N)c2nc(CNc3ccc(C(=O)N[C@@H](CCCNC(=O)c4ccccc4C(=O)O)C(=O)O)cc3)cnc2n1 [PT523]	2.2 ± 0.3 nM		0.3 % of folic acid	
Pemetrexed				IC50 ([3]; RPMI-1640 with 2.2 μM folic acid, 72 hours drug exposure, mean ± S.D. of 3 experiments): 10.7 ± 2.2 nM
Cc1nc2ccc(CN(C)c3ccc(C(=O)N[C@@H](CCC(=O)O)C(=O)O)s3)cc2c(=O)[nH]1 [Raltitrexed]	2.4 ± 0.5 nM			
Nc1nc2c(c(=O)[nH]1)CC(CCc1ccc(C(=O)N[C@@H](CCC(=O)O)C(=O)O)cc1)CN2 (stereo partly shown) [DDATHF, 5,10-dideazatetrahydrofolate]	9.8 ± 0.8 nM	moderate to high binding affinities	27 % of folic acid	FRα binding affinity, fold higher than FR-β [7]: 2.5 fold
C#CCN(Cc1cc2c(=O)[nH]c(C)nc2cc1C)c1ccc(C(=O)N[C@@H](CCc2nn[nH]n2)C(=O)O)c(F)c1 [BGC 9331]	8.7 ± 0.8 nM			
